This is an account of results in patent publication US5187165A, “Memory enhancing and analgesic 1,2,3a,8,8a-hexahydro-3a,8(and 1,3a,8)-di(and tri)methylpyrrolo[2,3-b]indoles” (priority 1988, dated 1993).

For experiment [1], the system named is pressure stress by artery clip on tail. The experiment in a line: Modified Haffner's Analgesia. The experiment is classed as in vivo, mice. Particulars: sc; for ED50: Mus musculus, read-out: ANALGESIC ACTIVITY (ED50), Modified Haffner's Analgesia, mice, sc, peak time of drug activity; for ANALGESIC ACTIVITY (ED50), Modified Haffner's Analgesia: mice, peak time of drug activity. From the text:
The latter assay is used to evaluate analgesic activity by measuring drug-induced changes in the sensitivity of mice to pressure stress by placing an artery clip (21/2 inches long) on their tail. The procedure used is a modification of the test developed by Haffner, Dtsch. Med. Wschr., 55, 731 (1929), and it is described below.
Male mice (Charles River, CD-1) from 18-30 grams are used for the test. An artery clip is applied to the root of the tail of a mouse (approximately 1/2 inch from the body) to induce pain. The animal quickly responds to this noxious stimuli by biting the clip or the location of the clip. This reaction time, the interval between stimulus onset and response, is recorded in 1/10-second increments by a stop watch.
For a time response, the screening dose (25 mg/kg) is administered subcutaneously (10 ml/kg) to the animal receiving food and water ad libitum before testing. Animals receiving the compound orally are fasted 18-24 hours before drug administration. Drug to be tested is prepared with distilled water and if insoluble, one drop of a surfactant is added.
Twenty-eight animals (seven/group) are administered the drug 15, 30, 45 and 60 minutes prior to testing.
The cut-off time (CO) is determined by taking the (x) average +(3) standard (SD) deviations of the combined response latencies of the control mice in all time periods.
Any reaction time, in subsequent drug tests, which is greater than the CO (for the same time period) therefore exceeds 99% of a normal Gaussian distribution and is called "positive response" indicative of analgesic activity. A time response indicates the period of greatest analgesic effect after dosing. The ED50 is determined at the peak time of drug activity. A minimum of three dose groups are used. ED50 's are calculated using computer analysis.

Experiment [2] concerns 2-phenyl-1,4-benzoquinone-induced writhing. The experiment in a line: 2-phenyl-1,4-benzoquinone-induced writhing (PQW) test. The experiment is classed as in vivo. Particulars: mice; for ED50: Mus musculus, read-out: ANALGESIC ACTIVITY (ED50), PQW. An excerpt: Compounds I of the present invention are also useful as analgesic agents due to their ability to alleviate pain in mammals. […] Exptl. Biol. Med., 95,729 (1957)] and in modified Haffner's analgesia.

Experiment [3] has as its system scopolamine-induced memory deficit. The experiment in a line: Dark Avoidance Assay (scopolamine induced memory deficit reversal). The experiment is classed as in vivo, mice. Particulars: Mus musculus, sc, 24 h, read-out: % of Animals with Scopolamine Induced Memory Deficit Reversal. The method, then:
In this assay mice are tested for their ability to remember an unpleasant stimulus for a period of 24 hours. A mouse is placed in a chamber that contains a dark compartment; a strong incandescent light drives it to the dark compartment, where an electric shock is administered through metal plates on the floor. The animal is removed from the testing apparatus and tested again, 24 hours later, for the ability to remember the electric shock.
If scopolamine, an anticholinergic that is known to cause memory impairment, is administered before an animal's initial exposure to the test chamber, the animal re-enters the dark compartment shortly after being placed in the test chamber 24 hours later. This effect of scopolamine is blocked by an active test compound, resulting in a greater interval before re-entry into the dark compartment.
The results for an active compound are expressed as the percent of a group of animals in which the effect of scopolamine is blocked, as manifested by an increased interval between being placed in the test chamber and re-entering the dark compartment.

In experiment [4] the target is T1, acetylcholinesterase (Brain AChE) (Rattus norvegicus, UniProt P37136).
T1 construct: corpora striata dissected free, weighed and homogenized in 19 volumes; from tissue; host or cells: corpora striata of male Wistar rats, crude homogenate in phosphate buffer
T1 sequence (P37136 32-614): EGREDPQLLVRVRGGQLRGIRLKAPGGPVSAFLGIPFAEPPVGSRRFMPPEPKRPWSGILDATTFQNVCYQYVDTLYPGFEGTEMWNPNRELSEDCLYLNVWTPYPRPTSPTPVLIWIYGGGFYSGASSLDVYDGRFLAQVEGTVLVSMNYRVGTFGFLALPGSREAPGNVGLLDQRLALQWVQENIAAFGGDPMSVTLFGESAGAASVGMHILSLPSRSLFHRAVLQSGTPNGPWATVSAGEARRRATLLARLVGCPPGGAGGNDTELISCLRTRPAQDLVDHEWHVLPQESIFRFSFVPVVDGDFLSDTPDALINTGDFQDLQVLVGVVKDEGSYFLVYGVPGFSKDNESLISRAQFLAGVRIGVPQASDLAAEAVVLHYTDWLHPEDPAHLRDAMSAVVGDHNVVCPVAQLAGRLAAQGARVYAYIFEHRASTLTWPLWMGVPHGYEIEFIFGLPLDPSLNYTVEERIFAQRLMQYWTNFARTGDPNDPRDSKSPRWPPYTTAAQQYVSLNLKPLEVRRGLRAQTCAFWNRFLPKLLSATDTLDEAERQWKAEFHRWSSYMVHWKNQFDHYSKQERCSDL
The experiment in a line: In Vitro Inhibition of Acetylcholinesterase Activity in Rat Striatum. The experiment is classed as biochemical. An excerpt: (§1) Cholinesterases are found throughout the body, both in the brain and in serum. However, only brain acetylcholinesterase (AChE) distribution is correlated with central cholinergic innervation. […] We have determined in vitro inhibition of acetylcholinesterase activity in rat striatum and in vitro inhibition of butrylcholinesterase activity in human serum according to the methods described below.
The method described below was used in this invention for assaying cholinesterase activity. This is a modification of the method of Ellman et al., Biochem. Pharmacol. 7, 98 (1961).
1. 0.05M Phosphate buffer, pH 7.2
(§2) (a) 9.9 mg 5,5-dithiobisnitrobenzoic acid (DTNB) (0.25 mM)
(b) 99 mg s-acetylthiocholine chloride (5 mM)
(§3) (c) q.s. to 100 ml with 0.05M phosphate buffer, pH 7.2 (reagent 1)
Male Wistar rats are decapitated, brains rapidly removed, corpora striata dissected free, weighed and homogenized in 19 volumes (approximately 7 mg protein/ml) of 0.05M phosphate buffer, pH 7.2 using a Potter-Elvehjem homogenizer. A 50 microliter aliquot of the homogenate is added to 50 microliter vehicle of various concentrations of the test drug and preincubated for 10 minutes at room temperature.
1. For routine IC50 determinations the Abbott Bichromatic Analyzer, ABA-100, is used to determine acetylcholinesterase activity.
Incubation temperature: 30° C.
Following the 10 minute preincubation of the tissue (enzyme) with the inhibitor, the samples are mixed with the substrate chromogen buffer by the ABA-100. Using the indicated instrument settings the ABA-100 automatically reads the color reaction and prints out the results in enzyme units after 15 minutes.
2. The enzyme activity can also be measured with Gilford 250 spectrophotometer. This method is used for more accurate kinetic measurments.
Reagents are added to the reference and sample side of a split curvette as follows.
The uninhibited activity of the enzyme (tissue homogenate) is first determined. Test drugs are made up in a suitable solvent and added in suitable dilutions to the buffer vehicle. The reaction rate is determined by the slope of the recorded absorbance change. The actual rate (moles/liter/min) can be calculated as described in the following formula
rate(moles/liter/min)=slope/(1.36×10^4).

Experiment [5] addresses T2, butyrylcholinesterase (Serum AChE) (Homo sapiens, UniProt P06276).
T2 construct: A vial of lyophilized human serum; purchased Biodynamics, Houston, Tex; (Precilip); host or cells: lyophilized human serum, reconstituted in water; enzyme not purified
The experiment in a line: In Vitro Inhibition of Butyrylcholinesterase Activity in Human Serum. The experiment is classed as biochemical.
Excerpt: as §1
This assay can be used in conjunction with the acetylcholinesterase assay to determine the enzyme selectivity of various chloinesterase inhibitors.
Butyrylcholinesterase (BChE), which is sometimes called pseudocholinesterase, preferentially hydrolyzes butyrylcholine. This enzyme is found in the highest amounts in serum, but its physiological role is not known.
as §2
(b) 113 mg s-butyrylthiochloine chloride (5 mM)
as §3
A vial of lyophilized human serum (Precilip, Biodynamics, Houston, Tex. is reconstituted in 3 ml of distilled water. A 10 microliter aliquot of this suspension is added to 90 microliter of the vehicle or various concentrations of the test drug and preincubated for 10 minutes at room temperature.
Substantially the same procedure is used as described above in Section C of the Procedure used for determining the inhibition of acetylcholinsterase activity.

Structures can show the parent of a compound that is named as a salt. Where two headings read alike, the source gives them in different places. Where only a bound is given, the exact number is not on record here.

T2 sequence (P06276 29-602): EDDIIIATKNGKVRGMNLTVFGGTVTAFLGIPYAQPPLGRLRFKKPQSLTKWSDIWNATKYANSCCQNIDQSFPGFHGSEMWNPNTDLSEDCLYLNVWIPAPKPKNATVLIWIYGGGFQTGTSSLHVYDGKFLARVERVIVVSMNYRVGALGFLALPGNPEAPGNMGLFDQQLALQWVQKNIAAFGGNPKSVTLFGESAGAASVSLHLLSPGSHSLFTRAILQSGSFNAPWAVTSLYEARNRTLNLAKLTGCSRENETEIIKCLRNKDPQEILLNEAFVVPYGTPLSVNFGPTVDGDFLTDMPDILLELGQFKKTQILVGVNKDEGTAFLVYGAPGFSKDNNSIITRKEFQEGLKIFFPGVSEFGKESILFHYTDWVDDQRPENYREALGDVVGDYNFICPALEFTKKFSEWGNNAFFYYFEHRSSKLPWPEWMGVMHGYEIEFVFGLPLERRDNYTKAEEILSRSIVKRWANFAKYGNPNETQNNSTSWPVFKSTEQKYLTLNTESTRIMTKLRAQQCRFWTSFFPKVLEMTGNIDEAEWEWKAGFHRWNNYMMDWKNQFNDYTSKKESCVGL

For the compound `CN1CC[C@@]2(C)c3cc(O)ccc3N(C)[C@@H]12` [eseroline salicylate, reference compound], the ED50 in experiment [1] was determined as 0.18 mg/kg; in experiment [2] (sc, sc), 0.52 mg/kg.

Turning to `Cc1cc(O)cc2c1N(C)[C@H]1N(C)CC[C@@]21C` (relative stereo) [(3aS-cis)-1,2,3,3a,8,8a-Hexahydro-1,3a,7,8-tetramethylpyrrolo[2,3-b]indol-5-ol], the median effective dose (ED50) was 0.31 mg/kg in experiment [1] and 0.22 mg/kg in experiment [2] (sc, sc).

As to `CN1CC[C@@]2(C)c3cc(OC(=O)N4CC5CCC(CC5)C4)ccc3N(C)[C@@H]12` [(3aS-cis)-1,2,3,3a,8,8a-Hexahydro-1,3a,8-trimethylpyrrolo[2,3-b]indol-5-ol,[3-[3-azabicyclo[3.2.2]nonyl]]carbamate ester fumarate], in experiment [3], the responders at 5 mg/kg was found to be 33%. Further, the IC50 in experiment [4] is 0.84 µM; in experiment [5], > 1000 µM.

Regarding `CN1CC[C@@]2(C)c3cc(OC(=O)NC4CCCCCCCCCCC4)ccc3N(C)[C@@H]12` [(3aS-cis)-1,2,3,3a,8,8a-Hexahydro-1,3a,8-trimethylpyrrolo[2,3-b]indol-5-ol,cyclododecyl carbamate ester], the IC50 in experiment [4] is 0.41 µM; in experiment [5], > 1000 µM.

In the case of `CCN(CC)C(=O)Oc1cc2c(cc1Br)N(C)[C@H]1N(C)CC[C@@]21C` [(3aS-cis)-6-bromo-1,2,3,3a,8,8a-hexahydro-1,3a,8-trimethylpyrrolo[2,3-b]indol-5-ol, N,N-diethyl carbamate ester], the responders at 5 mg/kg in experiment [3] was 40%.

In the case of `CCN1CCC2(C)c3cc(O)cc(Br)c3N(C)C12` (stereo not shown) [7-Bromo-1-ethyl-1,2,3,3a,8,8a-hexahydro-3a,8-dimethylpyrrolo[2,3-b]indol-5-ol salicylate], the ED50 in experiment [1] came out at 1.94 mg/kg; in experiment [2] (sc, sc), 2.52 mg/kg.

In the case of `CN1CC[C@@]2(C)c3cc(O)cc(Br)c3N(C)[C@@H]12` (relative stereo) [(3aS-cis)-7-Bromo-1,2,3,3a, 8,8a-hexahydro-1,3a,8-trimethylpyrrolo[2,3-b]indol-5-ol], the ED50 in experiment [2] (po, po) came to 0.36 mg/kg.

As for `C=CCN1CCC2(C)c3cc(O)ccc3N(C)C12` (stereo not shown) [1,2,3,3a,8,8a-Hexahydro-3a,8-dimethyl-1-(2-propenyl)-pyrrolo[2,3-b]indol-5-ol salicylate], the ED50 in experiment [1] was 2.56 mg/kg; in experiment [2] (sc, sc), 3.9 mg/kg.

With `CN1CC[C@@]2(C)c3cc(OC(=O)NC45CC6CC(CC(C6)C4)C5)ccc3N(C)[C@@H]12` [(3aS-cis)-1,2,3,3a,8,8a-Hexahydro-1,3a,8-trimethylpyrrolo[2,3-b]indol-5-ol,(1-adamantyl)carbamate ester], the responders at 1.25 mg/kg in experiment [3] worked out at 27%. The results for the IC50 in experiment [4] and in experiment [5] were 3.05 µM and > 100 µM, respectively.

With `CC(=O)Oc1cc([N+](=O)[O-])c2c(c1)[C@]1(C)CCN(C)[C@@H]1N2C` [(3aS-cis)-1,2,3,3a,8,8a-Hexahydro-1,3a,8-trimethyl-7-nitropyrrolo[2,3-b]indol-5-ol acetate fumarate], the ED50 in experiment [1] was 3.6 mg/kg; in experiment [2] (sc, sc), 1.5 mg/kg.

The compound `CNC(=O)Oc1cc(C)c2c(c1)[C@]1(C)CCN(C)[C@@H]1N2C` [(3aS-cis)-1,2,3,3a,8,8a-Hexahydro-1,3a,7,8-tetramethylpyrrolo[2,3-b]indol-5-ol, methyl carbamate ester] displayed an IC50 in experiment [4] of 0.012 µM.

In the case of `CN1CC[C@@]2(C)c3cc(OC(=O)C(C)(C)C)cc(Br)c3N(C)[C@@H]12.Cl` (relative stereo) [(3aS-cis)-7-Bromo-1,2,3,3a,8,8a-hexahydro-1,3a,8-trimethylpyrrolo[2,3-b]indol-5-ol, trimethylacetate hydrochloride], the ED50 in experiment [1] came to 0.6 mg/kg; in experiment [2] (sc, sc), 0.8 mg/kg.

Turning to `CN1CC[C@@]2(C)c3cc(O)cc(Br)c3N(C)[C@@H]12` (relative stereo) [7-bromo-1,2,3,3a,8,8a-hexahydro-1,3a,8-trimethylpyrrolo[2,3-] [7-Bromo-1,2,3,3a,8,8a-hexahydro-1,3a,8-trimethylpyrrolo[2,3-b]indol-5-ol], in experiment [1], the “ANALGESIC ACTIVITY (ED50), Modified Haffner's Analgesia” value came to 0.22 mg/kg. Moreover, the “ANALGESIC ACTIVITY (ED50), PQW” value turned out to be 0.33 mg/kg in experiment [2] (po) and 0.17 mg/kg in experiment [2] (sc).

Consider `CN1CC[C@@]2(C)c3cc(O)cc(Br)c3N(C)[C@@H]12` (relative stereo) [(3aS-cis)-7-bromo-1,2,3,3a,8,8a-hexahydro-1,3a,8-trimethylpy] [(3aS-cis)-7-Bromo-1,2,3,3a, 8,8a-hexahydro-1,3a,8-trimethylpyrrolo[2,3-b]indol-5-ol], for which the “ANALGESIC ACTIVITY (ED50), Modified Haffner's Analgesia” value in experiment [1] was determined as 0.55 mg/kg. For the same compound, in experiment [2] (sc), the “ANALGESIC ACTIVITY (ED50), PQW” value worked out at 0.041 mg/kg.
